What was measured:
[1] = target: T1, Sodium channel protein type 9 subunit alpha (Homo sapiens, UniProt Q15858); test: In Vitro Assay: 293 Cells stably transfected with either Nav 1.7 or Nav 1.5 were recorded in population patch-clamp mode with the IonWorks Quattro automated electrophysiology system in accordance with the manufacturer's specifications (Molecular Devices, LLC, Sunnyvale, Calif.). Sodium channel currents were measured in response to a train of depolarizations that induced successively greater inactivation.Cells were held at -110 mV for three seconds (Nav 1.7) or half a second (Nav 1.5) from a holding voltage of -15 mV, then put through a series of 26 pulses of 150 msec duration to -20 mV at a frequency of 5 Hz. Cells were then left unclamped for a period of 3 to 8 minutes while a single concentration of test compound was added. Cells were then reclamped and put through the same voltage protocol. Current at the end of the 26th pulse to -20 mV was subtracted from the peak current evoked by the 26th pulse to -20 mV to correct for leak current.
T1 sequence (Q15858 whole entry): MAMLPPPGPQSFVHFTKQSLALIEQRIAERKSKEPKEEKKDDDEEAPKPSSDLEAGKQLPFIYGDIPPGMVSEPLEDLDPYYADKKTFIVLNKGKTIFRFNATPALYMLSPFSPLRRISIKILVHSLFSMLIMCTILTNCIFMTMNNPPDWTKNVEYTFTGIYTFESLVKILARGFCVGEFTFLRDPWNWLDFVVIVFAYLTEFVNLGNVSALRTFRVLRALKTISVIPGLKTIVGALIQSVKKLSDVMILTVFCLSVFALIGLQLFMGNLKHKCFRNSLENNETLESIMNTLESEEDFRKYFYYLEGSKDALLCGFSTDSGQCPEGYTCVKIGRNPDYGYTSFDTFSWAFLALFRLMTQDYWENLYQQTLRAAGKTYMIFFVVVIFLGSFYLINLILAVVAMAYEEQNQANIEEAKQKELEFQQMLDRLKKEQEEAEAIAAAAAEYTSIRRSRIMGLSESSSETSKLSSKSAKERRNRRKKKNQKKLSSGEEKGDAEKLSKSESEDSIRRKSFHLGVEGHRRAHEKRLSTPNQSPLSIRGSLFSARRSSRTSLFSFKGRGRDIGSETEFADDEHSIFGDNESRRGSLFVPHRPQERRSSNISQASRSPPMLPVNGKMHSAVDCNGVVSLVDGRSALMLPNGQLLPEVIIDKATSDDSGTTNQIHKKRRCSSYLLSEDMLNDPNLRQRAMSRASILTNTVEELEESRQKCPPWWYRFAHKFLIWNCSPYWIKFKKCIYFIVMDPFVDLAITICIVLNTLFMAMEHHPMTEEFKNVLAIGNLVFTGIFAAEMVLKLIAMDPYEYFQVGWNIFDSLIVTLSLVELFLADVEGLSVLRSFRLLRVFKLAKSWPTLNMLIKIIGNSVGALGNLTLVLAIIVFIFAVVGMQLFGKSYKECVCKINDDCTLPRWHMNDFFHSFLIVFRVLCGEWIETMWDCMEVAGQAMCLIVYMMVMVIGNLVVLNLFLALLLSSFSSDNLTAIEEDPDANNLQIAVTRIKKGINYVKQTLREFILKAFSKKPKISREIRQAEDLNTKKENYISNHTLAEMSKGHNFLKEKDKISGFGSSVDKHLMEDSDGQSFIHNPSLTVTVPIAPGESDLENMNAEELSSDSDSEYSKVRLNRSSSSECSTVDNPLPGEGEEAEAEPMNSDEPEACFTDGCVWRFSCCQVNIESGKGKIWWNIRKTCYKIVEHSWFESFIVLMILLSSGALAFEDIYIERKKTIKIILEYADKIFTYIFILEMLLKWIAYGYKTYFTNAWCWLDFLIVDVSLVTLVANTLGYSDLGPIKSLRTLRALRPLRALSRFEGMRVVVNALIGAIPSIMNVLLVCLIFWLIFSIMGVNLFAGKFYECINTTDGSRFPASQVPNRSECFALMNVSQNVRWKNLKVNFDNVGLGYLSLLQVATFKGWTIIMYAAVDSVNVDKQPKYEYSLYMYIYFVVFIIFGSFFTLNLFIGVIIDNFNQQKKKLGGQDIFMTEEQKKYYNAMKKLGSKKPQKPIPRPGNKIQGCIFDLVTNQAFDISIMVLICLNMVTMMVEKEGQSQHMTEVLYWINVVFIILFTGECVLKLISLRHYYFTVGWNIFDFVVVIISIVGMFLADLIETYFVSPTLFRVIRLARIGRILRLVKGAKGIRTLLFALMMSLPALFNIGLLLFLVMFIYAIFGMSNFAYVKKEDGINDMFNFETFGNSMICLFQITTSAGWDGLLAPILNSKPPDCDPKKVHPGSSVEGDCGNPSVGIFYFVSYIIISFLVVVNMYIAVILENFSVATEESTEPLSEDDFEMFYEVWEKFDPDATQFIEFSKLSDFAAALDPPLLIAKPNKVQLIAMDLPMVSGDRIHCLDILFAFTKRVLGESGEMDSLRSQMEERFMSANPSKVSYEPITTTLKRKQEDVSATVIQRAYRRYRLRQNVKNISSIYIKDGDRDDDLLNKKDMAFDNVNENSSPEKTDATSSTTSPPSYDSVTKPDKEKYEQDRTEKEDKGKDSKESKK

[2] = target: T1, Sodium channel protein type 9 subunit alpha; test: In Vitro PX Assay: 293 cells stably transfected with human Nav1.7 were recorded in whole cell voltage clamp mode with the PatchXpress automated electrophysiology system (Molecular Devices, LLC, Sunnyvale, Calif.). Compound effects were measured on a partially inactivated state of the sodium channel. Cells were clamped to a holding potential yielding 20 to 50% inactivation. To elicit sodium current, channels were activated by pulsing to −10 mV for 20 msec. This voltage protocol was repeated at a rate of 0.1 Hz throughout the experiment. A single concentration of test compound was applied to cells for a duration of 3 minutes. Peak sodium current was measured at the end of the compound addition period to determine percent inhibition.; type: cell-based

IC50 [2] [nM]	Compound	IC50 [1] [nM]
	Nc1cc(Cl)ccc1-c1cccc2cc(S(=O)(=O)Nc3ncns3)ccc12	110
	Cc1cc(Cl)ccc1-c1cccc2cc(S(=O)(=O)Nc3ncns3)ccc12	190
	O=S(=O)(Nc1ncns1)c1ccc2c(-c3ccc(Cl)cc3)cccc2c1	190
	O=S(=O)(Nc1ncns1)c1ccc2c(-c3ccc(Cl)cc3F)cccc2c1	210
	O=S(=O)(Nc1ncns1)c1ccc2c(-c3ccc(C(F)(F)F)cc3F)cccc2c1	210
	O=S(=O)(Nc1ncns1)c1ccc2c(-c3ccc(C(F)(F)F)cc3)cccc2c1	430
	O=S(=O)(Nc1ncns1)c1ccc2c(-c3ccc(Cl)cc3Cl)nccc2c1	70
10500	O=S(=O)(Nc1ncns1)c1ccc2c(N3CCC3c3ccccc3)cccc2c1 (stereo not given)	3900
18300	COc1cc(Cl)ncc1-c1nccc2cc(S(=O)(=O)Nc3ccncn3)ccc12	460
10800	O=S(=O)(Nc1ccncn1)c1ccc2c(-c3cc(C(F)(F)F)ccc3F)nccc2c1	570
393	COc1cc(C)ccc1-c1nccc2cc(S(=O)(=O)Nc3nccs3)ccc12	
13500	O=S(=O)(Nc1nccs1)c1ccc2c(-c3ccc(F)cc3Oc3cccnn3)nccc2c1	
1230	COc1cc(C#N)ccc1-c1nncc2cc(S(=O)(=O)Nc3nccs3)ccc12	260
	Cc1noc(C)c1-c1nccc2cc(S(=O)(=O)Nc3ccncn3)ccc12	> 10000
5160	Cc1cnc(OCCOc2ccccc2)c(-c2nccc3cc(S(=O)(=O)Nc4nccs4)ccc23)c1	
5370	COc1cc(-c2cccnc2)ccc1-c1nccc2cc(S(=O)(=O)Nc3ccncn3)ccc12	
971	O=S(=O)(Nc1nccs1)c1ccc2c(-c3ccc(C(F)(F)F)cc3Cl)ncnc2c1	

Compound	IC50 [2] [nM]	IC50 [1] [nM]
CN1CCC(c2cc(C(F)(F)F)ccc2-c2cccc3cc(S(=O)(=O)Nc4ncc(F)s4)ccc23)CC1	282	150
O=S(=O)(Nc1nccs1)c1ccc2c(N3CCN(c4ccc(Cl)c(Cl)c4)CC3)nccc2c1	10900	
O=S(=O)(Nc1ccncn1)c1ccc2c(-c3ccc(-c4cccc(F)c4)cc3)nccc2c1	4500	
